Test results published in ChEMBL document CHEMBL1147065, “Identification of an in vivo inhibitor of Bacillus anthracis spore germination” (J Biol Chem, 2007).
Activity calls are given as the source filed them. The calls are words filed in the database; no cut-off is given here.

How the values were obtained:
Bacillus anthracis [1] = assay: Inhibition of cytopathic effect in Bacillus anthracis Sterne infected mouse RAW264.7 macrophage after 6 hrs by propidium iodide exclusion assay; assay type: functional, organism-based
Bacillus anthracis [2] = assay: Inhibition of inosine and alanine-induced germination of Bacillus anthracis Sterne spore pre-incubated for 15 mins; assay type: functional, organism-based
Bacillus anthracis [3] = assay: Inhibition of cytopathic effect in Bacillus anthracis Sterne infected mouse RAW264.7 macrophage assessed as lack of propidium iodide positive cells after 7 hrs; assay type: functional, organism-based
Bacillus anthracis [4] = assay: Inhibition of cytopathic effect in Bacillus anthracis Sterne infected mouse RAW264.7 macrophage at 1 uM to 2 uM after 6 hrs by propidium iodide exclusion assay; assay type: functional; set-up: scale not given: the % may be the effect or the level left

For COc1nc(N)nc2c1ncn2[C@@H]1O[C@H](CO)[C@@H](O)[C@H]1O, the Activity (Bacillus anthracis [1]) was “inactive” and the Ki (Bacillus anthracis [2]) was 34 µM.

In the case of Nc1nc(=S)c2ncn([C@@H]3O[C@H](CO)[C@@H](O)[C@H]3O)c2[nH]1 [THIOGUANOSINE], the Activity (Bacillus anthracis [3]) is reported as “Active”, the Activity (Bacillus anthracis [4]) is reported as 88% and the Ki (Bacillus anthracis [2]) is reported as 98 µM.

In the case of OC[C@H]1O[C@@H](n2cnc3c(O)nc(O)nc32)[C@H](O)[C@@H]1O [XANTHOSINE], the Activity (Bacillus anthracis [1]) is reported as “inactive” and the Ki (Bacillus anthracis [2]) is reported as 777 µM.

For CSc1ncnc2c1ncn2[C@@H]1O[C@H](CO)[C@@H](O)[C@H]1O, the Activity (Bacillus anthracis [1]) was “inactive” and the Ki (Bacillus anthracis [2]) was 31 µM.

In the case of Nc1nc(Cl)c2ncn([C@@H]3O[C@H](CO)[C@@H](O)[C@H]3O)c2n1, the Activity (Bacillus anthracis [1]) is reported as “inactive” and the Ki (Bacillus anthracis [2]) is reported as 87 µM.

For Nc1nc(N)c2ncn([C@@H]3O[C@H](CO)[C@@H](O)[C@H]3O)c2n1, the Activity (Bacillus anthracis [1]) was “inactive” and the Ki (Bacillus anthracis [2]) was 68 µM.
